The results in this text go back to patent publication US20140120088A1, “AGENTS FOR THE TREATMENT OF TUMORS” (Assistance Publique-Hopitaux de Paris, priority 2011, published 2014).

In this experiment the test system is high-grade glioma with subarachnoid extension. In words: treatment of patients with high-grade glioma with subarachnoid extension. Format: in vivo, human. As to conditions: responding patients; before the combined treatment, under bevacizumab alone, or when intrathecal CpG was resumed. As to the method: Four patients had high-grade glioma with subarachnoid extension. The treatment protocol of patients was as follows:
Subcutaneous injection of 0.3 mg/kg of CpG-ODN at D0, D7, D14, D21 et D28 (capped at 25 mg per injection, for patients>83 kg)
Intrathecal administration of CpG-ODN (7 mg) (in the cerebrospinal fluid) three times, with a two-week interval between each injection (D0, D14 and D28). (In 2 patients, the intrathecal injections were continued every 2 to 4 weeks for several months). (Other intrathecal injections of larger amounts of CpG-ODN (14 mg or 17 mg), again in three steps with a two weeks interval between each injection are currently tested, in other patients in a clinical trial.)
Intravenous perfusions of Avastin from 5 to 10 mg/kg every 2 weeks, started, depending on the cases, before, during or after the beginning of CpG-ODN.

As to 5′-TAAACGTTATAACGTTATGACGTCAT-3′ [CpG], the “clinical outcome under single agent or on resuming the combination” value is given as “only a slight improvement”.

In the case of “Bevacizumab: monoclonal antibody directed against VEGF, marketed by Roche under the name of Avastin”, the “clinical outcome under single agent or on resuming the combination” value is reported as “progression”.
